# According to patent US9464064B2, “HCV helicase inhibitors and methods of use thereof” (University of Kansas, priority 2011, dated 2016):
# Where two headings read alike, the source gives them in different places.
# Molecular target: T1, E. coli SSB-Cy5-dT15 complex (Escherichia coli, UniProt P0AGE0)
# T1 construct: purchased Promega
# Experiment: Escherichia coli SSB Cy5-dT15 binding assay (fluorescence polarization)
# Details: for inhibition at 100 µM: read-out: SSB % Displaced @ 100 μM
# Protocol: The Escherichia coli SSB assay was performed in a total volume of 20.2 μl in 384-well, flat-bottom, low volume, black microplates (Greiner Bio-One). First, 20 μl of a assay solution (5 nM Cy5-[…]-3′ (Cy5-dT15, SEQ ID NO:5), 20 nM E. coli SSB (Promega), 25 mM MOPS, pH 7.5, 1.25 mM MgCl2, 0.0025 mg/ml BSA, 0.005% (v/v) TWEEN 20 and 0.025 mM DTT) was dispensed in each well, then 0.2 μl of dimethylsulfoxide (DMSO) or compound dissolved in DMSO was added by pin transfer, such that the final concentration of DMSO was 1% (v/v) in each assay.
# For IC50 determination, assays were performed with 60 μl total volume in black flat bottomed 384-well microplates (Corning). First, 3.0 μl of DMSO or compound dissolved in DMSO was added, such that the final concentration of DMSO was 5% (v/v) in each assay. Then 57 μl of a assay solution (5 nM Cy5-dT15, 20 nM SSB, 25 mM MOPS, pH 7.5, 1.25 mM MgCl2, 0.0025 mg/ml BSA, 0.005% (v/v) TWEEN 20 and 0.025 mM DTT) was dispensed in each well. Polarization was monitored with a TECAN Infinite M1000 PRO multi-mode microplate reader by exciting at 635 nm (5 nm bandwidth) and measuring total fluorescence intensity, parallel and perpendicular polarized light at 667 nm (20 nm bandwidth).
# [1] = disruption of Cy5-dT15-SSB complex, read-out: Cy5-dT15-SSB Binding IC50
# T1 sequence (P0AGE0 2-178, one chain of several): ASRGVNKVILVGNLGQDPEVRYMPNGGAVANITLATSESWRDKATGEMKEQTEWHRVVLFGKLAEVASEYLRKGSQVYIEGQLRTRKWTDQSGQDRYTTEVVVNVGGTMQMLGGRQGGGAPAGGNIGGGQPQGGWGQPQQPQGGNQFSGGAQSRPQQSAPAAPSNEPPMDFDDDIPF
SMILES,inhibition at 100 µM [%],EC50 (read-out: SSB EC50) [µM],IC50 [1] [µM],EC50 [µM],IC50 [µM]
Cc1ccc2nc(-c3ccc(NC(=O)c4ccc(NS(=O)(=O)c5ccccc5)cc4)cc3)sc2c1S(=O)(=O)O,61,> 100,,,
"Cc1ccc2nc(-c3ccc4nc(-c5ccc(NC(=O)c6ccccc6)cc5)sc4c3)sc2c1S(=O)(=O)O [Compound 5, 2′-(4-benzamidophenyl)-6-methyl-[2,6′-bibenzo[d]thiazole]-7-sulfonic acid]",91,4 ± 1,4 ± 1,,
"COc1ccc(C(=O)Nc2ccc(-c3nc4ccc(-c5nc6ccc(C)c(S(=O)(=O)O)c6s5)cc4s3)cc2)cc1 [Compound 8, 2′-(4-(4-methoxybenzamido)phenyl)-6-methyl-[2,6′-bibenzo[d]thiazole]-7-sulfonic acid]",92,,,2 ± 1,2 ± 1
"COC(=O)c1ccc(C(=O)Nc2ccc(-c3nc4ccc(-c5nc6ccc(C)c(S(=O)(=O)O)c6s5)cc4s3)cc2)cc1 [Compound 9, 2′-(4-(4-(methoxycarbonyl)benzamido)phenyl)-6-methyl-[2,6′-bibenzo[d]thiazole]-7-sulfonic acid]",91,2 ± 0.5,1,,
"Cc1ccc2nc(-c3ccc4nc(-c5ccc(NC(=O)c6ccc(Cl)cc6)cc5)sc4c3)sc2c1S(=O)(=O)O [Compound 10, 2′-(4-(4-chlorobenzamido)phenyl)-6-methyl-[2,6′-bibenzo[d]thiazole]-7-sulfonic acid]",80,,,46 ± 52,46 ± 52
"Cc1ccc(C(=O)Nc2ccc(-c3nc4ccc(-c5nc6ccc(C)c(S(=O)(=O)O)c6s5)cc4s3)cc2)cc1 [Compound 11, 6-methyl-2′-(4-(4-methylbenzamido)phenyl)-[2,6′-bibenzo[d]thiazole]-7-sulfonic acid]",96,5 ± 2,5 ± 2,,
"Cc1ccc2nc(-c3ccc4nc(-c5ccc(NC(=O)c6ccc(N(C)C)cc6)cc5)sc4c3)sc2c1S(=O)(=O)O [Compound 14, 2′-(4-(4-(dimethylamino)benzamido)phenyl)-6-methyl-[2,6′-bibenzo[d]thiazole]-7-sulfonic acid]",98,4 ± 1,4 ± 1,,
"Cc1ccc2nc(-c3ccc4nc(-c5ccc(NC(=O)c6ccc(NC(=O)OCC7c8ccccc8-c8ccccc87)cc6)cc5)sc4c3)sc2c1S(=O)(=O)O [Compound 16, 2′-(4-(4-((((9H-fluoren-9-yl)methoxy)carbonyl)amino)benzamido)phenyl)-6-methyl-[2,6′-bibenzo[d]thiazole]-7-sulfonic acid]",53,> 100,179 ± 239,,
"Cc1ccc2nc(-c3ccc4nc(-c5ccc(NC(=O)c6ccccc6C(F)(F)F)cc5)sc4c3)sc2c1S(=O)(=O)O [Compound 19, 6-methyl-2′-(4-(2-(trifluoromethyl)benzamido)phenyl)-[2,6′-bibenzo[d]thiazole]-7-sulfonic acid]",92,13 ± 2,13 ± 2,,
"Cc1ccc2nc(-c3ccc4nc(-c5ccc(NC(=O)c6cccc(C(F)(F)F)c6)cc5)sc4c3)sc2c1S(=O)(=O)O [Compound 20, 6-methyl-2′-(4-(3-(trifluoromethyl)benzamido)phenyl)-[2,6′-bibenzo[d]thiazole]-7-sulfonic acid]",23,> 100,,,
"Cc1ccc2nc(-c3ccc4nc(-c5ccc(NC(=O)c6c(F)cccc6C(F)(F)F)cc5)sc4c3)sc2c1S(=O)(=O)O [Compound 21, 2′-(4-(2-fluoro-6-(trifluoromethyl)benzamido)phenyl)-6-methyl-[2,6′-bibenzo[d]thiazole]-7-sulfonic acid]",96,13 ± 1,13 ± 1,,
"Cc1ccc2nc(-c3ccc4nc(-c5ccc(NC(=O)c6cccc(C(F)(F)F)c6F)cc5)sc4c3)sc2c1S(=O)(=O)O [Compound 22, 2′-(4-(2-fluoro-3-(trifluoromethyl)benzamido)phenyl)-6-methyl-[2,6′-bibenzo[d]thiazole]-7-sulfonic acid]",63,71 ± 13,71 ± 13,,
"Cc1ccc2nc(-c3ccc4nc(-c5ccc(NC(=O)c6ccc(C(F)(F)F)c(F)c6)cc5)sc4c3)sc2c1S(=O)(=O)O [Compound 23, 2′-(4-(3-fluoro-4-(trifluoromethyl)benzamido)phenyl)-6-methyl-[2,6′-bibenzo[d]thiazole]-7-sulfonic acid]",92,10 ± 1,10 ± 1,,
"Cc1ccc2nc(-c3ccc4nc(-c5ccc(NC(=O)c6cc(F)ccc6C(F)(F)F)cc5)sc4c3)sc2c1S(=O)(=O)O [Compound 26, 2′-(4-(5-fluoro-2-(trifluoromethyl)benzamido)phenyl)-6-methyl-[2,6′-bibenzo[d]thiazole]-7-sulfonic acid]",95,14 ± 2,14 ± 2,,
"Cc1ccc2nc(-c3ccc4nc(-c5ccc(NC(=O)c6cc(F)cc(C(F)(F)F)c6)cc5)sc4c3)sc2c1S(=O)(=O)O [Compound 27, 2′-(4-(3-fluoro-5-(trifluoromethyl)benzamido)phenyl)-6-methyl-[2,6′-bibenzo[d]thiazole]-7-sulfonic acid]",23,> 100,,,
"Cc1ccc(NC(=O)Nc2ccc(-c3nc4ccc(-c5nc6ccc(C)c(S(=O)(=O)O)c6s5)cc4s3)cc2)cc1 [Compound 28, 6-methyl-2′-(4-(3-(p-tolyl)ureido)phenyl)-[2,6′-bibenzo[d]thiazole]-7-sulfonic acid]",96,10,10 ± 3,,
"COc1ccc(S(=O)(=O)Nc2ccc(-c3nc4ccc(-c5nc6ccc(C)c(S(=O)(=O)O)c6s5)cc4s3)cc2)cc1 [Compound 29, 2′-(4-(4-methoxyphenylsulfonamido)phenyl)-6-methyl-[2,6′-bibenzo[d]thiazole]-7-sulfonic acid]",98,10,10 ± 2,,
"CC(=O)Nc1ccc(-c2nc3ccc(-c4nc5ccc(C)c(S(=O)(=O)O)c5s4)cc3s2)cc1 [Compound 30, 2′-(4-acetamidophenyl)-6-methyl-[2,6′-bibenzo[d]thiazole]-7-sulfonic acid]",89,17,17 ± 4,,
"Cc1ccc2nc(-c3ccc4nc(-c5ccc(NC(=O)c6cccnc6)cc5)sc4c3)sc2c1S(=O)(=O)O [Compound 31, 6-methyl-2′-(4-(nicotinamido)phenyl)-[2,6′-bibenzo[d]thiazole]-7-sulfonic acid]",48,> 100,173 ± 354,,
"Cc1ccc2nc(-c3ccc4nc(-c5ccc(NC(=O)c6ccncc6)cc5)sc4c3)sc2c1S(=O)(=O)O [Compound 32, 2′-(4-(isonicotinamido)phenyl)-6-methyl-[2,6′-bibenzo[d]thiazole]-7-sulfonic acid]",63,55,55 ± 20,,
"Cc1ccc2nc(-c3ccc4nc(-c5ccc(N(C)C(=O)c6ccc7ccccc7c6)cc5)sc4c3)sc2c1S(=O)(=O)O [Compound 34, 6-methyl-2′-(4-(N-methyl-2-naphthamido)phenyl)-[2,6′-bibenzo[d]thiazole]-7-sulfonic acid]",105,9,9 ± 2,,
Cc1ccc2nc(-c3ccc4nc(-c5ccc(NC(=O)c6ccc7nc(-c8ccc(NC(=O)OCC9c%10ccccc%10-c%10ccccc%109)cc8)sc7c6)cc5)sc4c3)sc2c1S(=O)(=O)O.N [Compound 36],95,5,5 ± 1,,
Cc1ccc2nc(-c3ccc(NC(=O)c4ccc(NC(=O)c5ccccc5)cc4)cc3)sc2c1S(=O)(=O)O.N [Compound 40],84,57,57 ± 13,,
Cc1ccc2nc(-c3ccc4nc(-c5ccc(NC(=O)c6ccc(CNC(=O)OCC7c8ccccc8-c8ccccc87)cc6)cc5)sc4c3)sc2c1S(=O)(=O)O.N [Compound 41],59,57,57 ± 16,,
Cc1ccc2nc(-c3ccc(NC(=O)c4ccc(NC(=O)OCC5c6ccccc6-c6ccccc65)cc4)cc3)sc2c1S(=O)(=O)O.N [Compound 42],93,27,27 ± 5,,
Cc1ccc2nc(-c3ccc(NC(=O)c4ccc(NC(=S)Nc5ccccc5)cc4)cc3)sc2c1S(=O)(=O)O.N [Compound 43],93,23,23 ± 5,,
Cc1ccc2nc(-c3ccc(NC(=O)c4ccc(NC(=O)c5ccc(C(F)(F)F)cc5)cc4)cc3)sc2c1S(=O)(=O)O.N [Compound 44],86,23,23 ± 6,,
Cc1ccc2nc(-c3ccc(NC(=O)c4ccc(NC(=O)Nc5ccccc5)cc4)cc3)sc2c1S(=O)(=O)O.N [Compound 45],96,20,20 ± 4,,
Cc1ccc2nc(-c3ccc(NC(=O)c4ccc(NC(=O)c5ccc(N)cc5)cc4)cc3)sc2c1S(=O)(=O)O.N [Compound 46],94,17,17 ± 5,,
